# Measured values published in PubChem BioAssay AID248 (DTP/NCI, 2004).
# Several values for one entry are separate records, joined by “and”; a condition that tells them apart may be missing. Identical values can stand only once. Inconclusive results and toxic doses are left out.
# System: L1210 leukemia ip in BDF1 mice, survival T/C
# Experiment: NCI In Vivo Anticancer Drug Screen. Data for tumor model L1210 Leukemia (intraperitoneal) in B6D2F1 (BDF1) mice
# Details: endpoint: mean survival time, higher = longer survival
# Method in brief: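 Each compound was tested against a transplantable tumor grown in mice. The endpoint was survival, with treated animals benchmarked against vehicle controls as a simple ratio.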
# [1] = dose: 50.0 mg/kg/injection, schedule: Q01DX009 (ip), vehicle: saline
# [2] = dose: 100.0 mg/kg/injection, schedule: Q01DX001 (ip), vehicle: saline
# [3] = dose: 100.0 mg/kg/injection, schedule: Q01DX009 (ip), vehicle: saline
# [4] = dose: 200.0 mg/kg/injection, schedule: Q01DX001 (ip), vehicle: saline
# [5] = dose: 200.0 mg/kg/injection, schedule: Q01DX009 (ip), vehicle: saline
# [6] = dose: 400.0 mg/kg/injection, schedule: Q01DX001 (ip), vehicle: saline
# [7] = dose: 100.0 mg/kg/injection, schedule: Q04DX003 (ip), vehicle: saline with Tween-80
# [8] = dose: 200.0 mg/kg/injection, schedule: Q04DX003 (ip), vehicle: saline with Tween-80
# [9] = dose: 400.0 mg/kg/injection, schedule: Q04DX003 (ip), vehicle: saline with Tween-80
# [10] = dose: 100.0 mg/kg/injection, schedule: Q01DX009 (ip), vehicle: Klucel (hydroxypropylcellulose) (HPC)
# [11] = dose: 100.0 mg/kg/injection, schedule: Q04DX003 (ip), vehicle: Klucel (hydroxypropylcellulose) (HPC)
# [12] = dose: 200.0 mg/kg/injection, schedule: Q01DX009 (ip), vehicle: Klucel (hydroxypropylcellulose) (HPC)
# [13] = dose: 400.0 mg/kg/injection, schedule: Q01DX009 (ip), vehicle: Klucel (hydroxypropylcellulose) (HPC)
# [14] = dose: 400.0 mg/kg/injection, schedule: Q04DX003 (ip), vehicle: Klucel (hydroxypropylcellulose) (HPC)
# [15] = dose: 20.0 mg/kg/injection, schedule: Q04DX003 (ip), vehicle: Klucel (hydroxypropylcellulose) (HPC)
# [16] = dose: 100.0 mg/kg/injection, schedule: Q04DX002 (ip), vehicle: Klucel (hydroxypropylcellulose) (HPC)
# [17] = dose: 200.0 mg/kg/injection, schedule: Q04DX002 (ip), vehicle: Klucel (hydroxypropylcellulose) (HPC)
# [18] = dose: 400.0 mg/kg/injection, schedule: Q04DX002 (ip), vehicle: Klucel (hydroxypropylcellulose) (HPC)
# [19] = dose: 100.0 mg/kg/injection, schedule: Q01DX009 (ip), vehicle: saline with Tween-80
# [20] = dose: 100.0 mg/kg/injection, schedule: Q04DX003 (ip), vehicle: saline
# [21] = dose: 200.0 mg/kg/injection, schedule: Q01DX009 (ip), vehicle: saline with Tween-80
# [22] = dose: 25.0 mg/kg/injection, schedule: Q01DX009 (ip), vehicle: saline
structure (smiles),measurement,setting,value
CC(=O)NC1C(=O)NS(=O)(=O)C1c1ccccc1 (stereo not given),T/C,[1],96 % of control and 97 % of control
same,T/C,[2],104 % of control and 92 % of control
same,T/C,[3],97 % of control and 94 % of control
same,T/C,[4],92 % of control
same,T/C,[5],94 % of control and 91 % of control
same,T/C,[6],92 % of control
OC/C(=C\c1ccccc1)c1ccccc1,T/C,[7],92 % of control
same,T/C,[8],94 % of control
same,T/C,[9],92 % of control
COc1ccc(C2=CC(c3ccccc3)C(c3ccccc3)C(=O)N2)cc1 (stereo not given),T/C,"dose: 6.25 mg/kg/injection, schedule: Q04DX002 (ip), vehicle: saline with Tween-80",100 % of control
same,T/C,"dose: 12.5 mg/kg/injection, schedule: Q04DX002 (ip), vehicle: saline with Tween-80",100 % of control
same,T/C,"dose: 25.0 mg/kg/injection, schedule: Q04DX002 (ip), vehicle: saline with Tween-80",92 % of control
CCOP(=S)(OCC)SCc1c(C)c(C)c(CSP(=S)(OCC)OCC)c(C)c1C,T/C,[10],95 % of control
same,T/C,[11],103 % of control
same,T/C,[12],103 % of control
same,T/C,"dose: 200.0 mg/kg/injection, schedule: Q04DX003 (ip), vehicle: Klucel (hydroxypropylcellulose) (HPC)",101 % of control
same,T/C,[13],93 % of control
same,T/C,[14],105 % of control
Clc1ccc(C2OCCO2)cc1,T/C,[10],94 % of control
same,T/C,[12],95 % of control
same,T/C,[13],107 % of control
Cc1cc(N(CCOS(C)(=O)=O)CCOS(C)(=O)=O)ccc1C=Nc1cccc(Br)c1,T/C,[15],110 % of control
same,T/C,"dose: 40.0 mg/kg/injection, schedule: Q04DX003 (ip), vehicle: Klucel (hydroxypropylcellulose) (HPC)",121 % of control
same,T/C,"dose: 80.0 mg/kg/injection, schedule: Q04DX003 (ip), vehicle: Klucel (hydroxypropylcellulose) (HPC)",98 % of control
same,T/C,[11],120 % of control
CN1C(=O)CN(CCN2CC(=O)N(C)C2=S)C1=S,T/C,[16],105 % of control
same,T/C,[17],97 % of control
same,T/C,[18],90 % of control
COc1ccc2c(c1)CC[C@@H]1[C@@H]2CC[C@]2(C)[C@@H](O)C(=O)C[C@@H]12,T/C,[19],90 % of control
same,T/C,[20],94 % of control
same,T/C,[21],92 % of control
same,T/C,"dose: 200.0 mg/kg/injection, schedule: Q04DX003 (ip), vehicle: saline",88 % of control
same,T/C,"dose: 400.0 mg/kg/injection, schedule: Q01DX009 (ip), vehicle: saline with Tween-80",90 % of control
same,T/C,"dose: 400.0 mg/kg/injection, schedule: Q04DX003 (ip), vehicle: saline",91 % of control
CCOC(=O)/C(=C\c1ccccc1)c1nc2ccccc2[nH]1,T/C,[16],97 % of control
same,T/C,[17],101 % of control
same,T/C,[18],94 % of control
COc1ccc(OC)c(-n2cccc2C#N)c1,T/C,[16],104 % of control
same,T/C,[17],97 % of control
same,T/C,[18],104 % of control
Nc1nc(N)nc(-c2ccccc2NN=Nc2ccccc2[N+](=O)[O-])n1,T/C,[10],103 % of control
same,T/C,[12],97 % of control
same,T/C,[13],100 % of control
C=CCc1ccc(OC(=O)Nc2ccc(S(=O)(=O)NC3CCCCC3)cc2)c(OC)c1,T/C,[2],91 % of control
same,T/C,[4],94 % of control
same,T/C,[6],96 % of control
CC/C=C(\C)C1(CC)C(=O)NC(=O)NC1=O,T/C,"dose: 75.0 mg/kg/injection, schedule: Q01DX001 (ip), vehicle: saline",102 % of control
same,T/C,"dose: 150.0 mg/kg/injection, schedule: Q01DX001 (ip), vehicle: saline",95 % of control
CC/C(C)=C\CC/C(C)=C/COc1cccc(OC)c1,T/C,"dose: 100.0 mg/kg/injection, schedule: Q04DX002 (ip), vehicle: saline with Tween-80",108 % of control
same,T/C,"dose: 200.0 mg/kg/injection, schedule: Q04DX002 (ip), vehicle: saline with Tween-80",101 % of control
same,T/C,"dose: 400.0 mg/kg/injection, schedule: Q04DX002 (ip), vehicle: saline with Tween-80",103 % of control
CCCN(C(=O)N([Si](C)(C)C)S(=O)(=O)c1ccc(Cl)cc1)[Si](C)(C)C,T/C,[1],103 % of control
same,T/C,[3],96 % of control
C#CC1(O)CCCC(C)C1 (stereo not given),T/C,[19],102 % of control
same,T/C,[21],97 % of control
COC(=O)c1c(C)ccc2c(O)c3c(cc12)C(=O)c1c2c(cc(O)c1C3=O)C1(C)OC(C)(O2)C(O)C(N(C)C)C1O (stereo not given),T/C,[22],96 % of control
same,T/C,[1],96 % of control
same,T/C,[3],104 % of control
same,T/C,[5],98 % of control
same,T/C,"dose: 400.0 mg/kg/injection, schedule: Q01DX009 (ip), vehicle: saline",102 % of control
COc1cc(NS(C)(=O)=O)ccc1Nc1c2ccccc2nc2c(C)cccc12,T/C,"dose: 0.62 mg/kg/injection, schedule: Q01DX009 (ip), vehicle: saline",100 % of control
same,T/C,"dose: 1.25 mg/kg/injection, schedule: Q01DX009 (ip), vehicle: Klucel (hydroxypropylcellulose) (HPC)",124 % of control
same,T/C,"dose: 1.25 mg/kg/injection, schedule: Q01DX009 (ip), vehicle: saline",111 % of control
same,T/C,"dose: 2.5 mg/kg/injection, schedule: Q01DX009 (ip), vehicle: saline",160 % of control
same,T/C,"dose: 2.5 mg/kg/injection, schedule: Q01DX009 (sc), vehicle: saline",116 % of control
same,T/C,"dose: 2.5 mg/kg/injection, schedule: Q04DX003 (ip), vehicle: saline",121 % of control
same,T/C,"dose: 5.0 mg/kg/injection, schedule: Q01DX009 (ip), vehicle: Klucel (hydroxypropylcellulose) (HPC)",118 % of control
same,T/C,"dose: 5.0 mg/kg/injection, schedule: Q01DX009 (ip), vehicle: saline",163 % of control
same,T/C,"dose: 10.0 mg/kg/injection, schedule: Q01DX009 (ip), vehicle: Klucel (hydroxypropylcellulose) (HPC)",103 % of control
same,T/C,"dose: 10.0 mg/kg/injection, schedule: Q01DX009 (sc), vehicle: saline",112 % of control
same,T/C,"dose: 10.0 mg/kg/injection, schedule: Q04DX003 (ip), vehicle: saline",159 % of control and 164 % of control
same,T/C,"dose: 20.0 mg/kg/injection, schedule: Q04DX003 (ip), vehicle: saline",213 % of control and 234 % of control
C=CC(=O)c1c(O)cc(O)c2c1C(C)C(=O)O2 (stereo not given),T/C,"dose: 50.0 mg/kg/injection, schedule: Q01DX001 (ip), vehicle: saline",104 % of control
same,T/C,"dose: 75.0 mg/kg/injection, schedule: Q01DX009 (ip), vehicle: Klucel (hydroxypropylcellulose) (HPC)",89 % of control
same,T/C,[2],101 % of control
same,T/C,[11],106 % of control
same,T/C,[4],104 % of control
CC(C)(C)CC(C)(C)c1ccc(OCCOc2ccc(C(=O)Nc3ccc(NC(=O)c4ccc5ccccc5c4O)cc3)cc2)cc1,T/C,[7],105 % of control
same,T/C,[8],90 % of control
same,T/C,[9],90 % of control
O=C1NN=C2CCCCC12 (stereo not given),T/C,"dose: 100.0 mg/kg/injection, schedule: Q04DX003 (ip), vehicle: other",107 % of control
same,T/C,"dose: 200.0 mg/kg/injection, schedule: Q04DX003 (ip), vehicle: other",97 % of control
same,T/C,"dose: 400.0 mg/kg/injection, schedule: Q04DX003 (ip), vehicle: other",102 % of control
NC(CSS(=O)(=O)O)=NCc1ccccc1,T/C,"dose: 12.5 mg/kg/injection, schedule: Q04DX002 (ip), vehicle: Klucel (hydroxypropylcellulose) (HPC)",114 % of control
same,T/C,"dose: 25.0 mg/kg/injection, schedule: Q04DX002 (ip), vehicle: Klucel (hydroxypropylcellulose) (HPC)",101 % of control
same,T/C,"dose: 50.0 mg/kg/injection, schedule: Q04DX002 (ip), vehicle: Klucel (hydroxypropylcellulose) (HPC)",97 % of control
O=C1Nc2c(Cl)cccc2C1=O,T/C,[22],92 % of control
same,T/C,"dose: 25.0 mg/kg/injection, schedule: Q04DX003 (ip), vehicle: saline",98 % of control
same,T/C,[1],94 % of control
same,T/C,"dose: 50.0 mg/kg/injection, schedule: Q04DX003 (ip), vehicle: saline",98 % of control
same,T/C,[3],92 % of control
same,T/C,[20],96 % of control
COc1nc(Br)ccc1/C=N\NC(N)=S,T/C,"dose: 10.0 mg/kg/injection, schedule: Q04DX003 (ip), vehicle: Klucel (hydroxypropylcellulose) (HPC)",101 % of control
same,T/C,[15],95 % of control
same,T/C,[14],98 % of control
